Here are results for 14 compounds from patent publication US8648094B2, “IAP BIR domain binding compounds” (Pharmascience, Inc., priority 2006, dated 2014).

Each structure is given as a SMILES string. pEC50: −log10 of the molar value.

For one assay, the system named is SKOV-3 cells. The experiment in a line: Survival MTT assay. In kind it is cell-based. To be noted: Homo sapiens, SK-OV-3, 72 hours. As for the experimental part: (§1) One day prior the treatment with compound, 2000 to 4000 cells per well were plated in a tissue culture treated 96 well format dish with 100 uL of media and incubated at 37° C., 5% CO2. On the day of compound treatment, compounds were diluted with cell culture media to a working stock concentration of 2×. 100 ul of diluted compound were then added to each well. The treated plate was incubated for 72 hours at 37° C., 5% CO2. Upon incubation, the cell viability was assessed as follows; 20 uL of MTT reagent (5 mg/mL) were added per well to cell plate. The plate was incubated for 2 hrs at 37° C. in presence of 5% CO2. The supernatant was then removed from the plate and 100 uL of isopropanol was added. The absorbance was measured in a TECAN spectrophotometer at 570 nm. The percentage of viability was expressed in percentage of the signal obtained with non treated cells.

For the next assay, the system named is MDA-MB-231 cells. Description: Survival MTT assay. In kind it is cell-based. To be noted: Homo sapiens, 72 hours, read-out: MDA-MB231 EC50. As for the experimental part: as §1
Another assay has as its target T1, c-IAP1 (Homo sapiens, UniProt Q13490).
T1 construct: endogenous in cells; host or cells: HCT116
Description: Detection of c-IAP1 in cells by western blotting. In kind it is cell-based. The note with it: HCT116 cells, overnight treatment. As for the experimental part:
Detection of cell expressed XIAP and PARP were done by western blotting. Cells were plated at 300 000 cells/well in a 60 mm wells (6 wells plate dish). The next day the cells were treated with selected compound at the indicated concentration. […] The resulting pellet was rinsed twice with cold TBS. The final washed pellet of cells was the lysed with 250 ul Lysis buffer (NP-40, glycerol, 1% of a protease inhibitor cocktail (Sigma)), placed at 4° C. for 25 min with gentle shaking. The cells extract was centrifuged at 4° C. for 10 min at 10 000 rpm. Both the supernatant and the pellet were kept for western blotting analysis as described below. From the supernatant, the protein content was evaluated and about 50 ug of protein was fractionated onto a 10% SDS-PAGE. Pellets were washed with the lysis buffer and re-suspend into 50 ul of Lamelli buffer 1×, boiled and fractionated on SDS-PAGE. Upon electrophoresis each gel was electro-transferred onto a nitrocellulose membrane at 0.6 A for 2 hours. Membrane non-specific sites were blocked for 1 hours with 5% Skim milk in TBST (TBS containing 0.1% (v/v) Tween-20) at RT. For protein immuno-detection, membranes were incubated overnight with primary antibodies raised against various IAPs or caspase-3 or caspase-9 primary antibodies were incubated at 4° C. with shaking at dilutions as follows:
Upon overnight incubation, the membranes received three washes of 15 min in TBST then were incubated for 1 hour at room temperature in the presence of a secondary antibody coupled with HRP-enzyme (Chemicon) and diluted at 1/5 000. Upon incubation each membrane were washed three times with TBST and the immunoreactive bands were detected by addition of a luminescent substrate (ECL kit Amersham) and capture of signal on a X-RAY film for various time of exposure.

The next assay has as its system selected cell lines. The experiment in a line: Hollow fiber in vivo model. The note with it: compared to fibers from vehicle treated control mice. As for the experimental part: At day 1, selected cell lines are cultured and the fiber filled at a cell density of about 40,000 cells/fiber. At the day of operation (day 4), three fibers are implanted sub-cutaneous into 28-35 Nu/Nu CD-1 male mice. On day 5, mice start to receive daily injection via sub-cutaneous route of control vehicle or vehicle containing the selected compound at the appropriate concentration and/or injection of cytotoxic agent via intra-peritoneal route. Upon 4 days of consecutive treatments, the animals are sacrificed, each fiber is removed and the metabolic viability of the remaining cells determined by MTT assay. Efficacy of the compound is define as the difference between the vehicle-treated animal and the animal treated with the compound alone or the compound given in combination of the cytotoxic agent

Another assay relates to HCT116 colorectal cells. Description: Potentiation of TRAIL efficacy in survival assay. In kind it is cell-based, human. The note with it: 10 nM of compound. As for the experimental part:
Survival assays were preformed on the following transformed human cancer cell lines, MDA-MB-231, SKOV-3, H460, PC3, HCT-116, and SW480 cells. Cells were seeded in 96 well plates at a respective density of 5000 and 2000 cells per well and incubated at 37° C. in presence of 5% CO2 for 24 hours. Selected compounds were diluted into the media at various concentration ranging from 0.00001 uM up to 100 uM. Diluted compounds were added to the culture media. For the MDA-MB-231 SKOV3, H460, PC3, HCT-116, and SW480 cells, the compounds were added either alone or in presence of 1-3 ng/ml of TRAIL. After 48-72 hours cellular viability was evaluated by MTS based assays. A solution of [3-(4,5-dimethylthiazol-2-yl)-5-(3-carboxymethoxyphenyl)-2-(4-sulfophenyl)-2H-tetrazolium, inner salt; MTS] was added onto cells for a period of 1 to 4 hours. Upon incubation the amount of converted MTS was evaluated using a Tecan spectrophotometer set at 570 nm.

The subject of a further assay is A2780S ovarian cells. Description: Potentiation of TRAIL efficacy in survival assay. In kind it is cell-based. To be noted: 10 nM of compound.

T1 sequence (Q13490 whole entry): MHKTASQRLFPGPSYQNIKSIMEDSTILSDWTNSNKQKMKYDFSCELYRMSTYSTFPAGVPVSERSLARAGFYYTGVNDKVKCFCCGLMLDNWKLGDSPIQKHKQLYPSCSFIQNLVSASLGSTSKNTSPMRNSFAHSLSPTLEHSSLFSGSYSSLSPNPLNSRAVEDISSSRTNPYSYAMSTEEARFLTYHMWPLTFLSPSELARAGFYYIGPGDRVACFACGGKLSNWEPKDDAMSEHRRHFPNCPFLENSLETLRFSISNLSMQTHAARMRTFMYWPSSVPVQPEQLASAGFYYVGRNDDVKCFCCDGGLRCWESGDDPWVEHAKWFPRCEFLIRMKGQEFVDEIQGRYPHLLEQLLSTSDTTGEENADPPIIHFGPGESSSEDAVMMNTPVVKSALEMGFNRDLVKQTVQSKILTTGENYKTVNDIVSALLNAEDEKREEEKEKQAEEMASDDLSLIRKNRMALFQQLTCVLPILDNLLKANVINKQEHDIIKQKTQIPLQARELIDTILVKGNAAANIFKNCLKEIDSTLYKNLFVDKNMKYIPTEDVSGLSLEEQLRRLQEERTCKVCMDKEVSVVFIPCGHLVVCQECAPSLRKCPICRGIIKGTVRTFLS

Regarding `CN[C@@H](C)C(=O)N[C@H](C(=O)N1CCC[C@H]1CN(CCc1ccccc1)C(=O)Nc1ccc(NC(=O)N(CCc2ccccc2)C[C@@H]2CCCN2C(=O)[C@@H](NC(=O)[C@H](C)NC)C(C)(C)C)cc1)C(C)(C)C` [Compound 20], the pEC50 in the assay with SKOV-3 cells is 7.60 to 8.00; with MDA-MB-231 cells it was more than 8.00.

Consider `CN[C@@H](C)C(=O)N[C@H](C(=O)N1CCC[C@H]1CN(C[C@H](C)c1ccccc1)C(=O)CCCCCCCCC(=O)N(C[C@@H]1CCCN1C(=O)[C@@H](NC(=O)[C@H](C)NC)C(C)(C)C)C[C@H](C)c1ccccc1)C(C)(C)C` [Compound 21], for which the pEC50 in the assay with SKOV-3 cells and with MDA-MB-231 cells was more than 8.00 throughout.

As for `CN[C@@H](C)C(=O)N[C@H](C(=O)N1CCC[C@H]1CN(CCc1ccccc1)C(=O)c1ccc(C(=O)N(CCc2ccccc2)C[C@@H]2CCCN2C(=O)[C@@H](NC(=O)[C@H](C)NC)C(C)(C)C)s1)C(C)(C)C` [Compound 26], the results for the negative-log EC50 (pEC50) in the assay on SKOV-3 cells and in the assay with MDA-MB-231 cells were 7.60 to 8.00 and more than 8.00, respectively.

With `CN[C@@H](C)C(=O)N[C@H](C(=O)N1CCC[C@H]1CN(CCc1ccc(F)cc1)C(=O)CCCCCCCCC(=O)N(CCc1ccc(F)cc1)C[C@@H]1CCCN1C(=O)[C@@H](NC(=O)[C@H](C)NC)C(C)(C)C)C(C)(C)C` [Compound 29], the pEC50 with SKOV-3 cells was 7.60 to 8.00; in the assay with MDA-MB-231 cells, more than 8.00.

For `CN[C@@H](C)C(=O)N[C@H](C(=O)N1CCC[C@H]1CN(CCc1ccccc1)C(=O)CNC(=O)C(=O)NCC(=O)N(CCc1ccccc1)C[C@@H]1CCCN1C(=O)[C@@H](NC(=O)[C@H](C)NC)C(C)(C)C)C(C)(C)C` [Compound 31], at c-IAP1, the c-IAP1 levels entry is recorded as “reduced”. Besides, the “decrease in MTT signal in fibers from treated mice” value in the assay with selected cell lines is reported as 70%. For the same compound, the “potentiated TRAIL efficacy” value in the assay on HCT116 colorectal cells is “approximately 2 logs”. The pEC50 with SKOV-3 cells and in the assay on MDA-MB-231 cells was more than 8.00 in each case.

Consider `CN[C@@H](C)C(=O)N[C@H](C(=O)N1CCC[C@H]1CN(CCc1ccccc1)C(=O)CNC(=O)c1ccc(C(=O)NCC(=O)N(CCc2ccccc2)C[C@@H]2CCCN2C(=O)[C@@H](NC(=O)[C@H](C)NC)C(C)(C)C)cc1)C(C)(C)C` [Compound 35], for which, in the assay with A2780S ovarian cells, the “potentiated TRAIL efficacy” value was “approximately 2 logs”. Moreover, the negative logarithm of the EC50 (pEC50) in the assay on SKOV-3 cells and in the assay on MDA-MB-231 cells was more than 8.00 throughout.

Consider `CN[C@@H](C)C(=O)N[C@H](C(=O)N1CCC[C@H]1CN(CCCCc1ccccc1)C(=O)CCCCCCCCC(=O)N(CCCCc1ccccc1)C[C@@H]1CCCN1C(=O)[C@@H](NC(=O)[C@H](C)NC)C(C)(C)C)C(C)(C)C` [Compound 40], for which, at c-IAP1, the c-IAP1 levels result is listed as “reduced”.

`CN[C@@H](C)C(=O)N[C@H](C(=O)N1CCC[C@H]1CN(CCc1ccccc1)C(=O)CNC(=O)c1cccc(C(=O)NCC(=O)N(CCc2ccccc2)C[C@@H]2CCCN2C(=O)[C@@H](NC(=O)[C@H](C)NC)C(C)(C)C)c1)C(C)(C)C` [Compound 44]: the c-IAP1 levels entry at c-IAP1 was “reduced”. The pEC50 in the assay with SKOV-3 cells is more than 8.00.

As for `CN[C@@H](C)C(=O)N[C@H](C(=O)N1CCC[C@H]1CN(CCc1ccccc1)C(=O)CNC(=O)c1ccc(-c2ccc(C(=O)NCC(=O)N(CCc3ccccc3)C[C@@H]3CCCN3C(=O)[C@@H](NC(=O)[C@H](C)NC)C(C)(C)C)cc2)cc1)C(C)(C)C` [Compound 45], the c-IAP1 levels entry on c-IAP1 is on record as “reduced”. For the same compound, the pEC50 in the assay on SKOV-3 cells is more than 8.00.

Regarding `CN[C@@H](C)C(=O)N[C@H](C(=O)N1CCC[C@H]1CN(CCc1ccccc1)C(=O)c1ccc2cc(C(=O)N(CCc3ccccc3)C[C@@H]3CCCN3C(=O)[C@@H](NC(=O)[C@H](C)NC)C(C)(C)C)ccc2c1)C(C)(C)C` [Compound 56], the “decrease in MTT signal in fibers from treated mice” value with selected cell lines turned out to be 70%. In the assay on SKOV-3 cells, the pEC50 is more than 8.00.

As for `CN[C@@H](C)C(=O)N[C@H](C(=O)N1CCC[C@H]1CN(CCc1ccc(C(F)(F)F)cc1)C(=O)CCCCCCCCC(=O)N(CCc1ccc(C(F)(F)F)cc1)C[C@@H]1CCCN1C(=O)[C@@H](NC(=O)[C@H](C)NC)C(C)(C)C)C(C)(C)C` [Compound 67], the c-IAP1 levels result on c-IAP1 is reported as “reduced”.

Regarding `CN[C@@H](C)C(=O)N[C@H](C(=O)N1CCC[C@H]1CN(CCc1ccccc1)C(=O)CCNC(=O)c1ccc(C(=O)NCCC(=O)N(CCc2ccccc2)C[C@@H]2CCCN2C(=O)[C@@H](NC(=O)[C@H](C)NC)C(C)(C)C)cc1)C(C)(C)C` [Compound 91], the c-IAP1 levels entry at c-IAP1 was “reduced”. Also, the pEC50 in the assay with SKOV-3 cells was 7.60 to 8.00.

Regarding `CN[C@@H](C)C(=O)N[C@H](C(=O)N1CCC[C@H]1CN(CCc1ccccc1)S(=O)(=O)c1ccc2cc(S(=O)(=O)N(CCc3ccccc3)C[C@@H]3CCCN3C(=O)[C@@H](NC(=O)[C@H](C)NC)C(C)(C)C)ccc2c1)C(C)(C)C` [Compound 92], the pEC50 in the assay on SKOV-3 cells is more than 8.00.

`CN[C@@H](C)C(=O)N[C@H](C(=O)N1CCC[C@H]1CN(Cc1cccc(C(F)(F)F)c1)C(=O)CCCCCCCCC(=O)N(Cc1cccc(C(F)(F)F)c1)C[C@@H]1CCCN1C(=O)[C@@H](NC(=O)[C@H](C)NC)C(C)(C)C)C(C)(C)C` [Compound 100]: the c-IAP1 levels result at c-IAP1 is “reduced”.
